Test results published in patent publication US10485902B2, “Antibiotic drug release sheath” (Thomas Jefferson University, priority 2015, dated 2019).
Read-outs that look alike come from different tables or passages of the source.

Tests used:
[1] = US-mediated methylene blue release from PLA-sealed multiport (1 mm) PEEK sheath; assay type: physicochemical
Method: Multiple 1 mm holes (left) and one 3 mm hole (right) sheaths were submerged in water and release of methylene blue (MeB) or MeB+VAN was measured spectrophotometrically.
During the first 15 min of immersion, 11 mg and 3 mg of drug were released (due to surface amounts in PLA) from the groups. […] With a 15 min insonation (5 MHz, 3 MPa), 15 mg was released within one hour and the remaining 24 mg of drug was released by 72 hrs^39. (4) Three PLA coatings for US rupture using highly porous PEEK.

[2] = tested on: osteoblastic (MC3T3-E1) and chondrocytic (N1511) cells; conditions: cited from earlier work
S. aureus [3] = conditions: cited from earlier work
bacteria = conditions: US plus VAN; cited from earlier work
[4] = VAN release from PLA-sealed sheaths in spinal levels of a cadaverous rabbit; conditions: 4 mg VAN-loaded PLA-sealed sheaths; 20 min, 5 MHz, 3 MPa pk-pk; US parameters not optimized
Method: (§1) The first set of experiments uses rabbit carcasses to establish US parameters that reproducibly release the desired amounts of ABX within a mock spinal fusion site. Preliminary tests on such animals in which VAN-loaded (4 mg), PLA-sealed sheaths were placed in 4 spinal levels of a cadaverous rabbit. Site 1 and Site 3 were inoculated with 10^4 CFU S. aureus in 100 μL PBS, and Site 2 and 4 were encased in plastic to collect released VAN. Without any optimization of US parameters, ˜50% of the VAN was released by insonation (20 min, 5 MHz, 3 MPapk-pk) and caused ˜10× less bacterial colonization.

[5] = US release of VAN from porous PLA-sealed PEEK block; assay type: physicochemical; conditions: 10 mg VAN loaded; 10 min US insonation (5 MHz, 4 MPa)
Method: During the first 15 min of immersion, 11 mg and 3 mg of drug were released (due to surface amounts in PLA) from the groups. […] […] (4) Three PLA coatings for US rupture using highly porous PEEK.

bacterial lawn = assay: Passive elution of VAN from allograft bone and bacterial killing (FIG. 6); conditions: initial loading 10 mg/ml VAN
Method: Antibacterial activity of bone allografts: comparison of a new vancomycin-tethered allograft with allograft loaded with adsorbed vancomycin. This is an example of the elution that can be achieved without enhancement by ultrasound.
(initial loading: 10 mg/ml VAN, FIG. 6). However, a preferred sheath is sealed so that it retains antibiotics without leakage for up to 7 days (to allow for triggered release at any time prior to patient discharge) and then releases >99% of the antibiotics within 24 hrs. of US insonation. Accordingly, release can be determined based on the specific needs of the patient. Therapeutic materials loaded into the sheath may be liquids, solids, gels, or combinations thereof. Release profile of these different materials may require different structures to allow for the appropriate release.

S. aureus [6] = assay: Bacterial colonization of inoculated spinal sites in a cadaverous rabbit; conditions: sites inoculated with 10^4 CFU S. aureus; insonation 20 min, 5 MHz, 3 MPa pk-pk
Method: as §1

Compound: CN(C)c1ccc2nc3ccc(=[N+](C)C)cc-3sc2c1 [MeB, methylene blue]
- increase in MeB release, US group ([1]; US insonated, over 8 days): 757%
- increase in MeB release, non-insonated controls ([1]; no US, at 2 days): 26%
- additional MeB release, non-insonated controls ([1]; no US, out to 6 days): no additional release

Compound: O=C(O)c1cn(C2CC2)c2cc(N3CCNCC3)c(F)cc2c1=O [CIP, ciprofloxacin]
- concentration at which toxicity / cell death initiates [2]: 0.15 to 0.2 mg/mL

Compound: CN[C@H](CC(C)C)C(=O)N[C@H]1C(=O)N[C@@H](CC(N)=O)C(=O)N[C@H]2C(=O)N[C@H]3C(=O)N[C@H](C(=O)N[C@H](C(=O)O)c4cc(O)cc(O)c4-c4cc3ccc4O)[C@H](O)c3ccc(c(Cl)c3)Oc3cc2cc(c3O[C@@H]2O[C@H](CO)[C@@H](O)[C@H](O)[C@H]2O[C@H]2C[C@](C)(N)[C@H](O)[C@H](C)O2)Oc2ccc(cc2Cl)[C@H]1O [VAN, vancomycin]
- bacterial levels on metal surface versus 0 and 4 ug/ml VAN (S. aureus [3]; 100 ug/ml of VAN (FIG. 2C)): massive reduction in bacterial levels
- reduction of bacterial colonization (S. aureus [3]; 1 hr., 100× MIC): many-fold
- further decrease of bacterial numbers by US in the presence of VAN (bacteria): 50-90%
- VAN released by insonation [4]: ~50%
- concentration at which toxicity / cell death initiates ([2]; MC3T3-E1 and N1511 cells): above 1 mg/ml
- toxicity in words ([2]; MC3T3-E1 and N1511 cells): low toxicity
- released VAN after US insonation [5]: 7.5 mg
- bacterial killing (bacterial lawn; especially within the first 48 hr.): significant bacterial killing
- elution from allograft bone (bacterial lawn; no ultrasound): rapid passive elution
- less bacterial colonization (S. aureus [6]): ~10 ×

Compound: NC[C@H]1O[C@H](O[C@H]2[C@H](O)[C@@H](O[C@H]3O[C@H](CO)[C@@H](O)[C@H](N)[C@H]3O)[C@H](N)C[C@@H]2N)[C@H](N)C[C@@H]1O [TOB, tobramycin]
- concentration at which toxicity / cell death initiates [2]: ~0.5 mg/mL
